Test results from patent US6737383B1, “Herbicidal oxadiazolidines” (priority 1999, dated 2004).

Assays:
smallflower flatsedge = assay: Test B flood test smallflower flatsedge; assay type: in vivo, Cyperus difformis
Outline: (§1)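 Each value is a visual injury score relative to controls, with 10 meaning complete control and 0 no effect. Evaluation took place twelve to sixteen days after the 2-leaf-stage plants were treated and kept in the greenhouse.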

soybean = assay: Test B pre/postemergence soybean; assay type: in vivo, Glycine max
Outline: (§2)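 Test chemicals in a non-phytotoxic solvent mixture with surfactant were sprayed preemergence onto planted seeds and postemergence onto plants 2 to 18 cm tall (1- to 4-leaf stage). After twelve to sixteen days in a greenhouse, injury was visually rated against untreated controls from 0 (no effect) to 10 (complete control).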

duck salad = assay: Test B flood test duck salad; assay type: in vivo, Heteranthera limosa
Outline: as §1

velvetleaf = assay: Test B pre/postemergence velvetleaf; assay type: in vivo, Abutilon theophrasti
Outline: as §2

purple nutsedge = assay: Test B pre/postemergence purple nutsedge; assay type: in vivo, Cyperus rotundus
Outline: as §2

cocklebur = assay: Test B pre/postemergence cocklebur; assay type: in vivo, Xanthium strumarium
Outline: as §2

wild oat = assay: Test B pre/postemergence wild oat; assay type: in vivo, Avena fatua
Outline: as §2

corn = assay: Test B pre/postemergence corn; assay type: in vivo, Zea mays
Outline: as §2

bamyardgrass = assay: Test B flood test barnyardgrass; assay type: in vivo, Echinochloa crus-galli
Outline: as §1

morningglory = assay: Test B pre/postemergence morningglory; assay type: in vivo, Ipomoea hederacea
Outline: as §2

crabgrass = assay: Test B pre/postemergence crabgrass; assay type: in vivo, Digitaria sanguinalis
Outline: as §2

wheat = assay: Test B pre/postemergence wheat; assay type: in vivo, Triticum aestivum
Outline: as §2

rape = assay: Test B pre/postemergence rape; assay type: in vivo, Brassica napus
Outline: as §2

bedstraw = assay: Test B pre/postemergence bedstraw; assay type: in vivo, Galium aparine
Outline: as §2

rice = assay: Test B flood test rice; assay type: in vivo, Oryza sativa
Outline: as §1

sugar beet = assay: Test B pre/postemergence sugar beet; assay type: in vivo, Beta vulgaris
Outline: as §2

giant foxtail = assay: Test B pre/postemergence giant foxtail; assay type: in vivo, Setaria faberii
Outline: as §2

blackgrass = assay: Test B pre/postemergence blackgrass; assay type: in vivo, Alopecurus myosuroides
Outline: as §2

surinam grass = assay: Test B pre/postemergence surinam grass; assay type: in vivo, Brachiaria decumbens
Outline: as §2

pigweed = assay: Test B pre/postemergence pigweed; assay type: in vivo, Amaranthus retroflexus
Outline: as §2

[1] = Rate 62 g/ha, flood test species, Pre-emergence, visual evaluation after twelve to sixteen days
[2] = Rate 125 g/ha, under heading Pre-emergence, flood test species, visual evaluation after twelve to sixteen days
[3] = Rate 250 g/ha, Pre-emergence (flood test species), scale 0 to 10, 0 is no effect, 10 is complete control
[4] = Rate 500 g/ha, Pre-emergence section of Table B, 0 to 10 scale (0 no effect, 10 complete control)
[5] = Postemergence, Rate 125 g/ha, scale of 0 to 10 where 0 is no effect and 10 is complete control
[6] = Postemergence, Rate 250 g/ha, scale of 0 to 10, 0 is no effect, 10 is complete control
[7] = Postemergence, Rate 500 g/ha, scale of 0 to 10 where 0 is no effect and 10 is complete control
[8] = Preemergence, Rate 62 g/ha, scale 0 to 10 (0 no effect, 10 complete control)
[9] = Preemergence, Rate 125 g/ha, scale of 0 to 10 where 0 is no effect and 10 is complete control
[10] = Preemergence, Rate 500 g/ha, scale of 0 to 10 where 0 is no effect and 10 is complete control
[11] = Postemergence, Rate 62 g/ha, scale of 0 to 10, 0 is no effect, 10 is complete control

CC(C)N(C(=O)n1oc(=O)n(CC(=O)C(F)(F)F)c1=O)c1ccc(F)cc1F [Compound 598]
0: Plant response rating, S. Flatsedge (0 to 10 scale, 0 is no effect, 10 is complete control) (smallflower flatsedge; [1]) | S. Flatsedge plant response rating (0 to 10 scale, 0 is no effect, 10 is complete control) (smallflower flatsedge; [2]) | S. Flatsedge plant response rating (smallflower flatsedge; [3]) | S. Flatsedge plant response rating (smallflower flatsedge; [4]) | Plant response rating, Soybean (soybean; [5]) | Soybean plant response rating (soybean; [6]) | Plant response rating, Soybean (soybean; [7]) | Soybean plant response rating (soybean; [8]) | Soybean plant response rating (soybean; [9]) | Plant response rating, Soybean (soybean; [10]) | Plant response rating, Ducksalad (0 to 10 scale, 0 is no effect, 10 is complete control) (duck salad; [1]) | Ducksalad plant response rating (0 to 10 scale, 0 is no effect, 10 is complete control) (duck salad; [2]) | Ducksalad plant response rating (duck salad; [3]) | Ducksalad plant response rating (duck salad; [4]) | Plant response rating, Velvetleaf (velvetleaf; [5]) | Velvetleaf plant response rating (velvetleaf; [6]) | Plant response rating, Velvetleaf (velvetleaf; [7]) | Velvetleaf plant response rating (velvetleaf; [8]) | Velvetleaf plant response rating (velvetleaf; [9]) | Plant response rating, Velvetleaf (velvetleaf; [10]) | Nutsedge plant response rating (purple nutsedge; [11]) | Plant response rating, Nutsedge (purple nutsedge; [5]) | Nutsedge plant response rating (purple nutsedge; [6]) | Plant response rating, Nutsedge (purple nutsedge; [7]) | Nutsedge plant response rating (purple nutsedge; [8]) | Nutsedge plant response rating (purple nutsedge; [9]) | Plant response rating, Nutsedge (purple nutsedge; [10]) | Cocklebur plant response rating (cocklebur; [11]) | Plant response rating, Cocklebur (cocklebur; [5]) | Cocklebur plant response rating (cocklebur; [6]) | Plant response rating, Cocklebur (cocklebur; [7]) | Cocklebur plant response rating (cocklebur; [8]) | Cocklebur plant response rating (cocklebur; [9]) | Cocklebur plant response rating (0 to 10 scale) (cocklebur; Preemergence, Rate 250 g/ha) | Plant response rating, Cocklebur (cocklebur; [10]) | Plant response rating, Wild oats (wild oat; [5]) | Wild oats plant response rating (wild oat; [6]) | Plant response rating, Wild oats (wild oat; [7]) | Wild oats plant response rating (wild oat; [8]) | Wild oats plant response rating (wild oat; [9]) | Plant response rating, Wild oats (wild oat; [10]) | Corn plant response rating (corn; [11]) | Plant response rating, Corn (corn; [5]) | Corn plant response rating (corn; [6]) | Plant response rating, Corn (corn; [7]) | Corn plant response rating (corn; [8]) | Corn plant response rating (corn; [9]) | Corn plant response rating (0 to 10 scale) (corn; Preemergence, Rate 250 g/ha) | Plant response rating, Corn (corn; [10]) | Plant response rating, Barnyardgrass (0 to 10 scale, 0 is no effect, 10 is complete control) (bamyardgrass; [1]) | Barnyardgrass plant response rating (0 to 10 scale, 0 is no effect, 10 is complete control) (bamyardgrass; [2]) | Barnyardgrass plant response rating (bamyardgrass; [3]) | Barnyardgrass plant response rating (bamyardgrass; [4]) | Morningglory plant response rating (morningglory; [11]) | Plant response rating, Morningglory (morningglory; [5]) | Morningglory plant response rating (morningglory; [6]) | Plant response rating, Morningglory (morningglory; [7]) | Morningglory plant response rating (morningglory; [8]) | Morningglory plant response rating (morningglory; [9]) | Plant response rating, Morningglory (morningglory; [10]) | Crabgrass plant response rating (crabgrass; [11]) | Plant response rating, Crabgrass (crabgrass; [5]) | Crabgrass plant response rating (crabgrass; [6]) | Plant response rating, Crabgrass (crabgrass; [7]) | Crabgrass plant response rating (crabgrass; [8]) | Crabgrass plant response rating (crabgrass; [9]) | Plant response rating, Crabgrass (crabgrass; [10]) | Plant response rating, Wheat (wheat; [5]) | Wheat plant response rating (wheat; [6]) | Plant response rating, Wheat (wheat; [7]) | Wheat plant response rating (wheat; [8]) | Wheat plant response rating (wheat; [9]) | Plant response rating, Wheat (wheat; [10]) | Rape plant response rating (rape; [11]) | Plant response rating, Rape (rape; [5]) | Rape plant response rating (rape; [6]) | Plant response rating, Rape (rape; [7]) | Rape plant response rating (rape; [8]) | Rape plant response rating (rape; [9]) | Plant response rating, Rape (rape; [10]) | Bedstraw plant response rating (bedstraw; [11]) | Plant response rating, Bedstraw (bedstraw; [5]) | Bedstraw plant response rating (bedstraw; [8]) | Bedstraw plant response rating (bedstraw; [9]) | Bedstraw plant response rating (0 to 10 scale) (bedstraw; Preemergence, Rate 250 g/ha) | Bedstraw plant response rating (bedstraw; [10]) | Plant response rating, Rice (0 to 10 scale, 0 is no effect, 10 is complete control) (rice; [1]) | Rice plant response rating (0 to 10 scale, 0 is no effect, 10 is complete control) (rice; [2]) | Rice plant response rating (rice; [3]) | Rice plant response rating (rice; [4]) | Plant response rating, Sugarbeets (sugar beet; [5]) | Sugarbeets plant response rating (sugar beet; [6]) | Plant response rating, Sugarbeets (sugar beet; [7]) | Sugarbeets plant response rating (sugar beet; [8]) | Sugarbeets plant response rating (sugar beet; [9]) | Plant response rating, Sugarbeets (sugar beet; [10]) | Giant foxtail plant response rating (giant foxtail; [11]) | Plant response rating, Giant foxtail (giant foxtail; [5]) | Giant foxtail plant response rating (giant foxtail; [6]) | Plant response rating, Giant foxtail (giant foxtail; [7]) | Giant foxtail plant response rating (giant foxtail; [8]) | Giant foxtail plant response rating (giant foxtail; [9]) | Plant response rating, Giant foxtail (giant foxtail; [10]) | Blackgrass plant response rating (blackgrass; [11]) | Plant response rating, Blackgrass (blackgrass; [5]) | Blackgrass plant response rating (blackgrass; [6]) | Plant response rating, Blackgrass (blackgrass; [7]) | Blackgrass plant response rating (blackgrass; [8]) | Blackgrass plant response rating (blackgrass; [9]) | Blackgrass plant response rating (0 to 10 scale) (blackgrass; Preemergence, Rate 250 g/ha) | Blackgrass plant response rating (blackgrass; [10]) | B. signalgrass plant response rating (surinam grass; [11]) | Plant response rating, B. signalgrass (surinam grass; [5]) | B. signalgrass plant response rating (surinam grass; [6]) | Plant response rating, B. signalgrass (surinam grass; [7]) | B. signalgrass plant response rating (surinam grass; [8]) | B. signalgrass plant response rating (surinam grass; [9]) | B. signalgrass plant response rating (0 to 10 scale, 0 is no effect, 10 is complete control) (surinam grass; Preemergence, Rate 250 g/ha) | B. signalgrass plant response rating (surinam grass; [10]) | Plant response rating, Redroot pigweed (pigweed; [5]) | Redroot pigweed plant response rating (pigweed; [6]) | Plant response rating, Redroot pigweed (pigweed; [7]) | Redroot pigweed plant response rating (pigweed; [8]) | Redroot pigweed plant response rating (pigweed; [9]) | Plant response rating, Redroot pigweed (pigweed; [10])
